Measured values reported in PubChem BioAssay AID330 (DTP/NCI, 2004).
Several values for one entry are separate records, joined by “and”; a condition that tells them apart may be missing. Identical values can stand only once. Inconclusive results and toxic doses are left out.

System: P388 leukemia ip, CD2F1 mice, survival T/C
Assay: NCI In Vivo Anticancer Drug Screen. Data for tumor model P388 Leukemia (intraperitoneal) in CD2F1 (CDF1) mice
Conditions: endpoint: median survival time, higher = longer survival
Summary of the method: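 Mice carrying the transplanted tumor received test compound or vehicle. Survival was recorded in each group, and the value is the treated-group measurement divided by that of the vehicle-treated control group.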

[1] = dose: 100.0 mg/kg/injection, schedule: Q04DX002 (ip), vehicle: saline with Tween-80
[2] = dose: 200.0 mg/kg/injection, schedule: Q04DX002 (ip), vehicle: saline with Tween-80
[3] = dose: 400.0 mg/kg/injection, schedule: Q04DX002 (ip), vehicle: saline with Tween-80
[4] = dose: 25.0 mg/kg/injection, schedule: Q01DX009 (ip), vehicle: Klucel (hydroxypropylcellulose) (HPC)
[5] = dose: 50.0 mg/kg/injection, schedule: Q01DX009 (ip), vehicle: Klucel (hydroxypropylcellulose) (HPC)
[6] = dose: 100.0 mg/kg/injection, schedule: Q01DX009 (ip), vehicle: Klucel (hydroxypropylcellulose) (HPC)
[7] = dose: 200.0 mg/kg/injection, schedule: Q01DX009 (ip), vehicle: Klucel (hydroxypropylcellulose) (HPC)

With `C[C@]12C=CC(=O)C=C1CC[C@H]1[C@@H]3C[C@@H](O)[C@](O)(C(=O)CO)[C@@]3(C)C[C@H](O)[C@@]12F` the T/C (dose: 100.0 mg/kg/injection, schedule: Q04DX003 (ip), vehicle: Klucel (hydroxypropylcellulose) (HPC)) was 100 % of control and the T/C (dose: 200.0 mg/kg/injection, schedule: Q04DX003 (ip), vehicle: Klucel (hydroxypropylcellulose) (HPC)) was 90 % of control.

For `CCCCNC(=O)C1CC2c3cccc4c3c(cn4C)CC2N(C)C1` (stereo not drawn), the T/C (dose: 25.0 mg/kg/injection, schedule: Q01DX001 (ip), vehicle: saline) was 102 % of control and the T/C (dose: 50.0 mg/kg/injection, schedule: Q01DX001 (ip), vehicle: saline) was 105 % of control.

`CO[C@H]1Nc2c(ccc(C)c2O)C(=O)N2C=C(/C=C/C(N)=O)C[C@@H]12` was tested, and the T/C (dose: 0.05 mg/kg/injection, schedule: Q04DX003 (ip), vehicle: DMSO) was 106 % of control, the T/C (dose: 0.05 mg/kg/injection, schedule: Q04DX003 (ip), vehicle: saline) was 122 % of control and the T/C (dose: 0.1 mg/kg/injection, schedule: Q04DX003 (ip), vehicle: DMSO) was 112 % of control. For the same molecule, the T/C (dose: 0.13 mg/kg/injection, schedule: Q04DX003 (ip), vehicle: saline + alcohol) was 152 % of control, the T/C (dose: 0.2 mg/kg/injection, schedule: Q04DX003 (ip), vehicle: DMSO) was 118 % of control and the T/C (dose: 0.2 mg/kg/injection, schedule: Q04DX003 (ip), vehicle: saline) was 122 % of control. The T/C (dose: 0.22 mg/kg/injection, schedule: Q04DX003 (ip), vehicle: saline + alcohol) was 153 % of control and 161 % of control (2×), the T/C (dose: 0.4 mg/kg/injection, schedule: Q04DX003 (ip), vehicle: saline) was 155 % of control and the T/C (dose: 0.6 mg/kg/injection, schedule: Q04DX003 (ip), vehicle: saline + alcohol) was 185 % of control. The T/C (dose: 0.8 mg/kg/injection, schedule: Q04DX003 (ip), vehicle: saline) was 110 % of control, the T/C (dose: 200.0 micrograms/kg/injection, schedule: Q01DX009 (ip), vehicle: saline) was 150 % of control and the T/C (dose: 200.0 micrograms/kg/injection, schedule: Q04DX003 (ip), vehicle: saline with Tween-80) was 165 % of control.

For `O=C1CNC(=O)C12C(=O)CNC2=O`, the T/C [1] was 98 % of control, the T/C [2] was 96 % of control and the T/C [3] was 98 % of control.

With `COc1ccc(/C=N/SC(c2ccccc2)(c2ccccc2)c2ccccc2)cc1` the T/C [1] was 111 % of control, the T/C [2] was 99 % of control and the T/C [3] was 92 % of control.

For `CSc1cc(C)[o+]c(C)c1`, the T/C [4] was 101 % of control, the T/C [5] was 113 % of control and 92 % of control and the T/C [6] was 106 % of control and 107 % of control. For the same molecule, the T/C [7] was 122 % of control.

For `CCOC(=O)NOC1CCCCO1` (stereo not drawn), the T/C (dose: 50.0 mg/kg/injection, schedule: Q01DX009 (ip), vehicle: saline) was 91 % of control, the T/C (dose: 100.0 mg/kg/injection, schedule: Q01DX009 (ip), vehicle: saline) was 105 % of control and the T/C (dose: 200.0 mg/kg/injection, schedule: Q01DX009 (ip), vehicle: saline) was 104 % of control.

`O=C1NC(c2cccc(OCc3ccccc3)c2)Nc2ccccc21` (stereo not drawn) was tested, and the T/C (dose: 3.13 mg/kg/injection, schedule: Q01DX009 (ip), vehicle: Klucel (hydroxypropylcellulose) (HPC)) was 94 % of control, the T/C (dose: 6.25 mg/kg/injection, schedule: Q01DX009 (ip), vehicle: Klucel (hydroxypropylcellulose) (HPC)) was 107 % of control and the T/C (dose: 12.5 mg/kg/injection, schedule: Q01DX009 (ip), vehicle: Klucel (hydroxypropylcellulose) (HPC)) was 102 % of control. The T/C [4] was 100 % of control, the T/C [5] was 109 % of control and the T/C [6] was 115 % of control. The T/C [7] was 102 % of control.

In the case of `C[N+](C)(C)C.O=C([CH-]C(=O)C(F)(F)F)c1ccccc1.O=C([CH-]C(=O)C(F)(F)F)c1ccccc1.O=C([CH-]C(=O)C(F)(F)F)c1ccccc1.O=C([CH-]C(=O)C(F)(F)F)c1ccccc1.[Eu+3]`, the T/C [4] is reported as 99 % of control, the T/C [5] is reported as 106 % of control and 113 % of control and the T/C (dose: 50.0 mg/kg/injection, schedule: Q01DX009 (ip), vehicle: saline with Tween-80) is reported as 103 % of control. The T/C [6] was 112 % of control and 117 % of control, the T/C (dose: 100.0 mg/kg/injection, schedule: Q01DX009 (ip), vehicle: saline with Tween-80) was 99 % of control and the T/C [7] was 113 % of control.

`CC(=O)Nc1ccsc1S(=O)(=O)c1sccc1NC(C)=O` was tested, and the T/C [1] was 100 % of control, the T/C [2] was 99 % of control and the T/C [3] was 98 % of control.

With `COc1ccc(CCN2C(=O)C(=O)N(c3ccc(Cl)c(Cl)c3)C2=O)cc1OC` the T/C [5] was 102 % of control, the T/C [6] was 97 % of control and the T/C [7] was 103 % of control.
